Assay results reported in ChEMBL document CHEMBL4715814, “Design, synthesis and biological activity evaluation of novel 4-subtituted 2-naphthamide derivatives as AcrB inhibitors” (2018).
Active and inactive are the calls of the source. The calls are words filed in the database; no cut-off is given here.

Key:
Escherichia coli [1] = test: Potentiation of TPP-induced antibacterial activity against AcrB deficient Escherichia coli BW25113 assessed as TPP MIC at 512 ug/ml incubated for 18 hrs under aerobic condition by checkerboard titration assay (reference value: 256 ug/ml); type: functional; conditions: dose 512 µg/ml
Escherichia coli [2] = test: Potentiation of erythromycin-induced antibacterial activity against wild type Escherichia coli BW25113 assessed as erythromycin MIC at 256 ug/ml incubated for 18 hrs under aerobic condition by checkerboard titration assay (reference value: 128 ug/ml); type: functional; conditions: dose 256 µg/ml
Escherichia coli [3] = test: Potentiation of chloramphenicol-induced antibacterial activity against AcrB deficient Escherichia coli BW25113 assessed as chloramphenicol MIC at 512 ug/ml incubated for 18 hrs under aerobic condition by checkerboard titration assay (reference value: 2 ug/ml); type: functional; conditions: dose 512 µg/ml
Escherichia coli [4] = test: Potentiation of TPP-induced antibacterial activity against wild type Escherichia coli BW25113 assessed as TPP MIC at 256 ug/ml incubated for 18 hrs under aerobic condition by checkerboard titration assay (reference value: 1024 ug/ml); type: functional; conditions: dose 256 µg/ml
Escherichia coli [5] = test: Potentiation of erythromycin-induced antibacterial activity against AcrB deficient Escherichia coli BW25113 assessed as erythromycin MIC at 512 ug/ml incubated for 18 hrs under aerobic condition by checkerboard titration assay (reference value: 32 ug/ml); type: functional; conditions: dose 512 µg/ml
Escherichia coli [6] = test: Potentiation of chloramphenicol-induced antibacterial activity against wild type Escherichia coli BW25113 assessed as chloramphenicol MIC at 512 ug/ml incubated for 18 hrs under aerobic condition by checkerboard titration assay (reference value: 16 ug/ml); type: functional; conditions: dose 512 µg/ml
Escherichia coli [7] = test: Potentiation of chloramphenicol-induced antibacterial activity against wild type Escherichia coli BW25113 assessed as chloramphenicol MIC at 256 ug/ml incubated for 18 hrs under aerobic condition by checkerboard titration assay (reference value: 16 ug/ml); type: functional; conditions: dose 256 µg/ml
Escherichia coli [8] = test: Potentiation of erythromycin-induced antibacterial activity against wild type Escherichia coli BW25113 assessed as erythromycin MIC at 512 ug/ml incubated for 18 hrs under aerobic condition by checkerboard titration assay (reference value: 128 ug/ml); type: functional; conditions: dose 512 µg/ml
Escherichia coli [9] = test: (§1) Antibacterial activity against Wild type Escherichia coli BW25113 assessed as inhibition of AcrB efflux pump by mesuring the glucose-induced nile red efflux at 100 uM preincubated with CCCP for 15 mins followed by compound addition after 15 mins nile red added and incubated for 3 hrs in shaker by fluorimetric analysis; type: functional, organism-based; conditions: time 195.0 min
Escherichia coli [10] = test: Potentiation of rifampicin-induced antibacterial activity against wild type Escherichia coli BW25113 assessed as rifampicin MIC at 256 ug/ml incubated for 18 hrs under aerobic condition by checkerboard titration assay (reference value: 16 ug/ml); type: functional; conditions: dose 256 µg/ml
Escherichia coli [11] = test: Potentiation of TPP-induced antibacterial activity against wild type Escherichia coli BW25113 assessed as TPP MIC at 512 ug/ml incubated for 18 hrs under aerobic condition by checkerboard titration assay (reference value: 1024 ug/ml); type: functional; conditions: dose 512 µg/ml
Escherichia coli [12] = test: Potentiation of chloramphenicol-induced antibacterial activity against AcrB deficient Escherichia coli BW25113 assessed as chloramphenicol MIC at 256 ug/ml incubated for 18 hrs under aerobic condition by checkerboard titration assay (reference value: 2 ug/ml); type: functional; conditions: dose 256 µg/ml
Cell membrane [13] = test: Induction of outer membrane permeabilization in wild type Escherichia coli BW25113 assessed as increase in nitrocefin hydrolysis at 512 ug/ml measured for 30 mins in presence of CCCP by spectrophotometry analysis; type: subcellular; conditions: dose 512.0 µg/ml
Cell membrane [14] = test: Disruption of inner membrane potential in wild type Escherichia coli BW25113 at 512 ug/ml preincubated for 10 mins followed by glucose stimulation and CCCP addition by DiOC2 probe based fluorimetric analysis; type: subcellular; conditions: dose 512.0 µg/ml
Escherichia coli [15] = test: Potentiation of erythromycin-induced antibacterial activity against wild type Escherichia coli BW25113 assessed as erythromycin MIC at 128 ug/ml incubated for 18 hrs under aerobic condition by checkerboard titration assay (reference value: 128 ug/ml); type: functional; conditions: dose 128 µg/ml
Escherichia coli [16] = test: Potentiation of erythromycin-induced antibacterial activity against AcrB deficient Escherichia coli BW25113 assessed as erythromycin MIC at 128 ug/ml incubated for 18 hrs under aerobic condition by checkerboard titration assay (reference value: 32 ug/ml); type: functional; conditions: dose 128 µg/ml
Escherichia coli [17] = test: Potentiation of erythromycin-induced antibacterial activity against wild type Escherichia coli BW25113 assessed as fold reduction in erythromycin MIC at 128 ug/ml incubated for 18 hrs under aerobic condition by checkerboard titration assay relative to erythromycin MIC alone; type: functional; conditions: dose 128 µg/ml
Escherichia coli [18] = test: Antibacterial activity against AcrB deficient Escherichia coli BW25113 assessed as inhibition of bacterial growth at 256 ug/ml after 18 hrs by microtitre broth dilution assay; type: functional, organism-based; conditions: dose 256.0 µg/ml
Escherichia coli [19] = test: Potentiation of erythromycin-induced antibacterial activity against AcrB deficient Escherichia coli BW25113 assessed as erythromycin MIC at 256 ug/ml incubated for 18 hrs under aerobic condition by checkerboard titration assay (reference value: 32 ug/ml); type: functional; conditions: dose 256 µg/ml
Escherichia coli [20] = test: Potentiation of TPP-induced antibacterial activity against AcrB deficient Escherichia coli BW25113 assessed as TPP MIC at 128 ug/ml incubated for 18 hrs under aerobic condition by checkerboard titration assay (reference value: 256 ug/ml); type: functional; conditions: dose 128 µg/ml
Escherichia coli [21] = test: Potentiation of TPP-induced antibacterial activity against AcrB deficient Escherichia coli BW25113 assessed as TPP MIC at 256 ug/ml incubated for 18 hrs under aerobic condition by checkerboard titration assay (reference value: 256 ug/ml); type: functional; conditions: dose 256 µg/ml
Escherichia coli [22] = test: Potentiation of TPP-induced antibacterial activity against wild type Escherichia coli BW25113 assessed as TPP MIC at 128 ug/ml incubated for 18 hrs under aerobic condition by checkerboard titration assay (reference value: 1024 ug/ml); type: functional; conditions: dose 128 µg/ml
Escherichia coli [23] = test: Potentiation of chloramphenicol-induced antibacterial activity against wild type Escherichia coli BW25113 assessed as fold reduction in chloramphenicol MIC at 128 ug/ml incubated for 18 hrs under aerobic condition by checkerboard titration assay relative to chloramphenicol MIC alone; type: functional; conditions: dose 128 µg/ml
Escherichia coli [24] = test: Antibacterial activity against wild type Escherichia coli BW25113 assessed as inhibition of bacterial growth at 256 ug/ml after 18 hrs by microtitre broth dilution assay; type: functional, organism-based; conditions: dose 256.0 µg/ml
Escherichia coli [25] = test: Potentiation of chloramphenicol-induced antibacterial activity against wild type Escherichia coli BW25113 assessed as chloramphenicol MIC at 128 ug/ml incubated for 18 hrs under aerobic condition by checkerboard titration assay (reference value: 16 ug/ml); type: functional; conditions: dose 128 µg/ml
Escherichia coli [26] = test: Potentiation of rifampicin-induced antibacterial activity against wild type Escherichia coli BW25113 assessed as rifampicin MIC at 128 ug/ml incubated for 18 hrs under aerobic condition by checkerboard titration assay (reference value: 16 ug/ml); type: functional; conditions: dose 128 µg/ml
Escherichia coli [27] = test: Potentiation of chloramphenicol-induced antibacterial activity against AcrB deficient Escherichia coli BW25113 assessed as chloramphenicol MIC at 128 ug/ml incubated for 18 hrs under aerobic condition by checkerboard titration assay (reference value: 2 ug/ml); type: functional; conditions: dose 128 µg/ml
Escherichia coli [28] = test: Potentiation of rifampicin-induced antibacterial activity against wild type Escherichia coli BW25113 assessed as rifampicin MIC at 512 ug/ml incubated for 18 hrs under aerobic condition by checkerboard titration assay (reference value: 16 ug/ml); type: functional; conditions: dose 512 µg/ml
Escherichia coli [29] = test: as §1, with “500” for “100”; type: functional, organism-based; conditions: time 195.0 min
Escherichia coli [30] = test: Potentiation of chloramphenicol-induced antibacterial activity against wild type Escherichia coli BW25113 assessed as fold reduction in chloramphenicol MIC at 256 ug/ml incubated for 18 hrs under aerobic condition by checkerboard titration assay relative to chloramphenicol MIC alone; type: functional; conditions: dose 256 µg/ml
Escherichia coli [31] = test: as §1, with “200” for “100”; type: functional, organism-based; conditions: time 195.0 min

Compound	MIC (Escherichia coli [2]) [µg/mL]	MIC (Escherichia coli [4]) [µg/mL]	MIC (Escherichia coli [7]) [µg/mL]	MIC (Escherichia coli [10]) [µg/mL]	MIC (Escherichia coli [12]) [µg/mL]	Activity (Cell membrane [13])	Activity (Cell membrane [14])	MIC (Escherichia coli [15]) [µg/mL]	MIC (Escherichia coli [16]) [µg/mL]	MIC (Escherichia coli [19]) [µg/mL]	MIC (Escherichia coli [20]) [µg/mL]	MIC (Escherichia coli [21]) [µg/mL]	MIC (Escherichia coli [22]) [µg/mL]	MIC (Escherichia coli [25]) [µg/mL]	MIC (Escherichia coli [26]) [µg/mL]	MIC (Escherichia coli [27]) [µg/mL]	fold change (FC) (Escherichia coli [17])	fold change (FC) (Escherichia coli [23])	other results
NC(=O)c1cc(OCCNC2CCCCC2)c2ccccc2c1	–	–	–	–	1	Active	inactive	16	16	8	256	128	1020	4	8	2	8	8	Activity (Escherichia coli [18]): Active; Activity (Escherichia coli [9]): Active; Activity (Escherichia coli [24]): Active
CCCNC(=O)c1cc(OCCC(C)C)c2ccccc2c1	16	1020	4	4	1	inactive	–	32	32	16	256	256	1020	16	16	2	4	4	–
CC(C)CCOc1cc(C(=O)NCc2ccccc2Cl)cc2ccccc12	128	1020	2	16	2	inactive	Active	128	–	32	–	256	1020	4	16	–	4	4	fold change (FC) (Escherichia coli [30]): 8; Activity (Escherichia coli [29]): Active
NC(=O)c1cc(OCCNCc2ccco2)c2ccccc2c1	128	512	16	16	1	Active	inactive	128	–	16	–	256	1020	16	16	–	–	–	Activity (Escherichia coli [18]): Active; Activity (Escherichia coli [24]): inactive

Now from value to compound, other results behind:

MIC (Escherichia coli [2]) [µg/mL]	MIC (Escherichia coli [4]) [µg/mL]	MIC (Escherichia coli [7]) [µg/mL]	MIC (Escherichia coli [10]) [µg/mL]	MIC (Escherichia coli [12]) [µg/mL]	Activity (Cell membrane [13])	Activity (Cell membrane [14])	MIC (Escherichia coli [15]) [µg/mL]	MIC (Escherichia coli [16]) [µg/mL]	MIC (Escherichia coli [19]) [µg/mL]	MIC (Escherichia coli [20]) [µg/mL]	MIC (Escherichia coli [21]) [µg/mL]	MIC (Escherichia coli [22]) [µg/mL]	MIC (Escherichia coli [25]) [µg/mL]	MIC (Escherichia coli [26]) [µg/mL]	MIC (Escherichia coli [27]) [µg/mL]	Compound	fold change (FC) (Escherichia coli [17])	fold change (FC) (Escherichia coli [23])	other results
64	1020	16	16	–	–	–	–	–	–	–	–	–	–	–	–	O=C(NC1CCCCC1)c1cc(OCc2ccccc2)c2ccccc2c1	–	–	MIC (Escherichia coli [1]): 256 µg/mL; MIC (Escherichia coli [3]): 2 µg/mL; MIC (Escherichia coli [5]): 32 µg/mL; MIC (Escherichia coli [6]): 16 µg/mL; MIC (Escherichia coli [8]): 32 µg/mL; Activity (Escherichia coli [9]): Active; MIC (Escherichia coli [11]): 1020 µg/mL
128	1020	16	16	2	Active	Active	–	–	–	–	256	–	–	–	–	O=C(Nc1ccccc1)c1cc(OCc2ccccc2)c2ccccc2c1	–	–	MIC (Escherichia coli [6]): 16 µg/mL; MIC (Escherichia coli [8]): 128 µg/mL; MIC (Escherichia coli [28]): 8 µg/mL; MIC (Escherichia coli [11]): 512 µg/mL; Activity (Escherichia coli [29]): Active
–	–	–	–	–	inactive	inactive	16	32	–	256	–	1020	2	16	2	CC(C)CCOc1cc(C(=O)NC2CCCCC2)cc2ccccc12	8	8	fold change (FC) (Escherichia coli [30]): 8; Activity (Escherichia coli [31]): Active
